Measurements taken from patent US20140323306A1, “Substituted 1,2,5-Oxadiazole Compounds and Their Use as Herbicides” (BASF SE, priority 2011, published 2014).

Test system: CHEAL
Assay: Greenhouse herbicidal test, post-emergence treatment
Assay type: in vivo, Chenopodium album
Details: post-emergence method, application rate 0.25 kg/ha; scale from 0 to 100
Description: The seeds of the test plants were shown separately for each species. For the post-emergence treatment, the test plants were first grown to a height of 3 to 15 cm, depending on the plant habit, and only then treated with the active ingredients which had been suspended or emulsified in water. For this purpose, the test plants were either shown directly and grown in the same containers, or they were first grown separately as seedlings and transplanted into the test containers a few days prior to treatment. Depending on the species, the plants were kept at 10-25° C. or 20-35° C. The test period extended over 2 to 4 weeks. During this time, the plants were tended, and their response to the individual treatments was evaluated. Evaluation was carried out using a scale from 0 to 100. 100 means no emergence of the plants, or complete destruction of at least the aerial moieties, and 0 means no damage, or normal course of growth. A good herbicidal activity is given at values of at least 70 and a very good herbicidal activity is given at values of at least 85. The plants used in the greenhouse experiments belonged to the following species: [table]

Cc1nonc1NC(=O)c1c(Cl)cc(Cl)cc1Cl [I′.A-2, 2,4,6-trichloro-N-(4-methyl-1,2,5-oxadiazol-3-yl)benzamide]
herbicidal activity against CHEAL: very good (a very good herbicidal activity is given at values of at least 85)
